What was measured:
[1] = Comparative solubility in 0.9% sodium chloride solution (isotonic solution); format: physicochemical; conditions: 37° C.; for Solubility: 10 mg in 10 ml 0.9% sodium chloride solution, agitated 24 hours; for Relative solubility vs. form I: 0.9% sodium chloride solution, 24 hours
Method: As a matter of fact, a comparative experiment between form I of the compound (A) (monohydrate prepared as described in U.S. Pat. No. 7,329,689) and form II of compound (A), subject of the present invention, was carried out.
10 mg of compound (A) in crystalline form I were agitated in 10 ml of a 0.9% sodium chloride solution (isotonic solution) at 37° C. for 24 hours. The concentration of the product in liquid phase was measured at the end.
Table 1 indicates the obtained solubility data.

[2] = Stability test of crystalline form at 40° C., 75% humidity, analysed by PXRD; format: physicochemical; conditions: thin layer on Petri dish, samples after 2, 7 and 15 days
Method: FIG. 5 describes the profile of the stability diffractograms of ITF 2357 of form II at 40° C., 75% relative humidity at different times. In particular, the first diffractogram from the bottom is performed at time 0, the second diffractogram from the bottom is performed after 2 days, the third diffractogram from the bottom is performed after 7 days and the fourth diffractogram from the bottom is performed after 15 days.
In detail, a sample of form II of ITF 2357 was deposited in a thin layer having a thickness of about 0.5 cm on a Petri dish and placed in an environment with a constant humidity of 75%, at a constant temperature of 40° C. for two weeks. Samples were taken after 2, 7 and 15 days and analysed through Powder X Ray Diffraction (PXRD). The results of such experiments were summarised in FIG. 5, where the diffractograms obtained from the samples of the various collections were indicated overlapped.

SMILES | Solubility [1] [µg/mL] | Relative solubility vs. form I [1] | Relative solubility vs. form I ([1]; listed as form II) | Stability of the crystalline form (PXRD) [2]
CN(C)Cc1ccc2cc(OC(=O)Nc3ccc(C(=O)NO)cc3)ccc2c1.Cl [Form I, hydrochloride of the (4-hydroxycarbamoyl-phenyl)-carbamic acid (6-dimethylamino methyl-2-naphtalenyl) ester, reference compound] | 154 | 1.00 |  | 
CN(C)Cc1ccc2cc(OC(=O)Nc3ccc(C(=O)NO)cc3)ccc2c1.Cl [Form II, hydrochloride of the (4-hydroxycarbamoyl-phenyl)-carbamic acid (6-dimethylamino methyl-2-naphtalenyl) ester] | 226 | 1.47 | 1.47 | no modifications of the crystalline form was observed
